Data set [1] has as its system MCF-7 (ER-positive) breast tumor cell line. Kind of data set: Cell death by MTT assay, MCF-7. In kind it is cell-based, human. To be noted: 24 hours, mean of four experiments. How it is done:
(§1) The ER-positive breast tumor cell lines MCF-7 and T47-D and the HER2 positive breast tumor cell lines MDA-MB-453 and BT474 (also ER-positive) were incubated with the indicated concentration of each mentioned compound of formula (I) for 24 hours and then cell death was assessed using MTT assay.
(§2) For each cell line, the percentage of cell death (mean of four experiments for cell lines MCF-7 and T47-D, and two experiments for cell lines MDA-MB-453 and BT474) is given in view of the increasing concentration of each tested compound of the invention.
(§3) Cell viability was assessed using the 3-[4,5-dimethylthiazol-2-yl]-2,5-diphenyltetrazolium bromide (MTT) viability assay (1). In brief, cells (4×10^4 per well) were cultured for 20 h in flat-bottomed 96 well plates with various concentrations of the apoptosis inducer. Then 0.015 ml of MTT (5 mg/ml in PBS) was added to each well and incubated for 4 h at 37° C. Formazan salt precipitats were dissolved by adding 0.115 ml of isopropyl alcohol containing 1% formic acid (v/v), and the absorbance was measured at 570 nm.

Data set [2] concerns T47-D (ER-positive) breast tumor cell line. Kind of data set: Cell death by MTT assay, T47-D. The data set is classed as cell-based, human. To be noted: 24 hours, mean of four experiments. Here is the method:
as §1, §2, §3
On the technique in general: Tetrazolium assays rely on reduction of a dye to a coloured formazan, in cell work by metabolically active cells.

In data set [3] the test system is BT474 (ER-positive/HER2-positive) breast tumor cell line. Kind of data set: Cell death by MTT assay, BT474. In kind it is cell-based, human. To be noted: 24 hours, mean of two experiments. Here is the method:
as §1, §2, §3

For data set [4], the system named is MDA-MB-453 (HER2 positive) breast tumor cell line. Kind of data set: Cell death by MTT assay, MDA-MB-453. The data set is classed as cell-based, human. The note with it: 24 hours, mean of two experiments. How it is done: as §1, §2, §3
Data set [5] concerns AKT phosphorylation. Kind of data set: In cellulo IC50 of AKT phosphorylation in CEM cells (Western blot densitometry). The data set is classed as cell-based. To be noted: Homo sapiens, CCRF-CEM, 2 hours incubation, AKT phosphorylation vs whole AKT, read-out: In vivo IC50. Here is the method:
CEM cells were incubated for 2 hours with the indicated concentrations of each mentioned compound of formula (I). Cells were then lysed and 100 μg of protein was loaded per line in an SDS-PAGE. Bands from AKT phosphorylation and whole AKT observed by Western blot were scanned and quantified by densitometric analysis. Based on these values, an in cellulo IC50 (half maximal inhibitory concentration) was measured for each compound of formula (I).
(§4) Immunoblots Excepted for immunoprecipitation experiments in which cells were lyzed with RIPA buffer, cells were lyzed for 30 min at 4° C. in Lysis buffer (25 mM HEPES pH 7.4, 1% v/v Triton X-100, 150 mM NaCl, 2 mM EGTA supplemented with a mix of protease inhibitors). Protein concentration was determined by the bicinchoninic acid method (Pierce, Rockford, Ill., USA) according to the manufacturer's protocol. Proteins were resolved by 8, 10 or 12% SDS-PAGE and transferred to a nitrocellulose membrane (GE Healthcare, Buckinghamshire, UK). The membrane was blocked 15 min with TBST (50 mM Tris, 160 mM NaCl, 0.05% v/v Tween 20, pH 7.4) containing 5% w/v dried skimmed milk (TBS™). Primary antibody was incubated overnight at 4° C. in TBS™. The membrane was intensively washed (TBST) and then the peroxydase-labeled anti-mouse IgG1 or IgG2a (CliniSciences, Nanterre, France) was added for 45 min. Proteins were visualized with the enhanced chemiluminescence substrate kit (ECL RevelBIOt®, Ozyme, Saint Quentin en Yvelines, France).
A general note: In western blotting, separated proteins are transferred to a membrane and probed.

In data set [6] the test system is PI3K/AKT activity (AKT phosphorylation). Kind of data set: PI3K/AKT/mTOR pathway inhibitory activity: level of AKT phosphorylation in CEM cells over time. In kind it is cell-based, human. To be noted: 10 μM, FIGS. 7 and 8. How it is done: The CEM cell was incubated with 10 μM of each mentioned compound of formula (I) for the indicated times and then cells were lysed and 100 μg of protein was loaded per line and resolved by SDS-PAGE. The levels of AKT phosphorylation (hallmark of PI3K activation) and total AKT (loading control) were analyzed by Western blot and the amount of AKT phosphorylation relative to the total amount of protein AKT was quantified by densitometric analysis, the intensity of each band was scanned and the level of AKT phosphorylation was reported to the amount of whole AKT and the percentage of phosphorylated-AKT was depicted.
as §4

The structures appear in SMILES notation.

On to `O=[N+]([O-])C1Cc2cc(Br)ccc2OC1c1ccc(F)cc1` (stereo not drawn) [Compound 7, 6-bromo-2-(4-fluorophenyl)-3-nitro-3,4-dihydro-2H-chromene], for which the “percentage of cell death” value in data set [1] (MCF-7, 6.25 μM) is 10.88%; in data set [1] (MCF-7, 12.5 μM), 38.7%; in data set [1] (MCF-7, 25 μM), 79.7%; in data set [1] (MCF-7, 50 μM) it was 95.55%; in data set [2] (6.25 μM) it was 34.43%; in data set [2] (12.5 μM), 85.1%. Moreover, the “percentage of cell death” value in data set [2] (25 μM) was 92.07%; in data set [2] (50 μM) it was 88.3%; in data set [3] (BT474, 6.25 μM) it was 44.85%; in data set [3] (BT474, 12.5 μM), 55.3%; in data set [3] (BT474, 25 μM), 91.87%; in data set [3] (BT474, 50 μM), 96.07%. In addition, the “percentage of cell death” value in data set [4] (MDA-MB-453, 0.390625 μM) came out at 1.13%; in data set [4] (MDA-MB-453, 0.78125 μM), 0%; in data set [4] (MDA-MB-453, 1.5625 μM) it was 13.84%; in data set [4] (MDA-MB-453, 3.125 μM), 52.93%; in data set [4] (MDA-MB-453, 6.25 μM) it was 65.61%; in data set [4] (MDA-MB-453, 12.5 μM) it was 97.05%. Besides, the “percentage of cell death” value came to 102.46% in data set [4] (MDA-MB-453, 25 μM) and 100.25% in data set [4] (MDA-MB-453, 50 μM).

For orientation: IC50 means the concentration that gives 50% inhibition. `O=[N+]([O-])C1=Cc2cccc(Br)c2OC1c1ccc(Br)cc1` (stereo not drawn) [Compound 18, 8-bromo-2-(4-bromo-phenyl)-3-nitro-2H-chromene]: the IC50 in data set [5] amounted to 1500 nM. The “percentage of cell death” value in data set [2] (6.25 μM) is 0%; in data set [2] (12.5 μM), 0%; in data set [2] (25 μM), 23.71%; in data set [2] (50 μM), 78.28%; in data set [4] (MDA-MB-453, 0.390625 μM) it was 3.17%; in data set [4] (MDA-MB-453, 0.78125 μM), 3.17%. Besides, the “percentage of cell death” value in data set [4] (MDA-MB-453, 1.5625 μM) was determined as 0%; in data set [4] (MDA-MB-453, 3.125 μM), 0%; in data set [4] (MDA-MB-453, 6.25 μM), 45.963%; in data set [4] (MDA-MB-453, 12.5 μM) it was 81.73%; in data set [4] (MDA-MB-453, 25 μM) it was 93.72%; in data set [4] (MDA-MB-453, 50 μM), 100%. In data set [6], the “inhibitory activity on PI3K/AKT (level of AKT phosphorylation)” value (“inhibitory activity on PI3K/AKT” for short) is reported as “very strong inhibitors”.

One may read the melting point as the temperature, or range, at which the solid turns liquid. Take `N#CC1=Cc2cc(Br)ccc2OC1c1ccc(Br)cc1` (stereo not drawn) [Compound 61, 6-Bromo-2-(4-bromophenyl)-2H-chromene-3-carbonitrile]: the melting point lay within 136 to 138 °C.

Take `CCOc1cccc2c1OC(c1ccc(Cl)cc1)C([N+](=O)[O-])=C2` (stereo not drawn) [Compound 14, 2-(4-chloro-phenyl)-8-ethoxy-3-nitro-2H-chromene]: in data set [5], the IC50 worked out at 10000 nM. Moreover, the “inhibitory activity on PI3K/AKT” value in data set [6] is on record as “very strong inhibitors”.

As to `O=[N+]([O-])C1=Cc2cc(Br)ccc2OC1c1ccc(Br)cc1` (stereo not drawn) [Compound 9, 6-bromo-2-(4-bromo-phenyl)-3-nitro-2H-chromene], the IC50 in data set [5] was 400 nM. Moreover, the “percentage of cell death” value in data set [1] (MCF-7, 6.25 μM) turned out to be 0%; in data set [1] (MCF-7, 12.5 μM), 32.14%; in data set [1] (MCF-7, 25 μM), 52.18%; in data set [1] (MCF-7, 50 μM), 80.16%; in data set [2] (6.25 μM), 20.53%; in data set [2] (12.5 μM) it was 92.97%. Moreover, the “percentage of cell death” value in data set [2] (25 μM) was found to be 91.2%; in data set [2] (50 μM), 93.62%; in data set [3] (BT474, 6.25 μM) it was 25.95%; in data set [3] (BT474, 12.5 μM), 71.4%; in data set [3] (BT474, 25 μM), 88.01%; in data set [3] (BT474, 50 μM), 93.62%. Moreover, the “percentage of cell death” value turned out to be 1.52% in data set [4] (MDA-MB-453, 0.390625 μM); 7.56% in data set [4] (MDA-MB-453, 0.78125 μM); 4.67% in data set [4] (MDA-MB-453, 1.5625 μM); 53.8% in data set [4] (MDA-MB-453, 3.125 μM); 71.22% in data set [4] (MDA-MB-453, 6.25 μM); 87.47% in data set [4] (MDA-MB-453, 12.5 μM). For the same compound, the “percentage of cell death” value turned out to be 97.49% in data set [4] (MDA-MB-453, 25 μM) and 98.67% in data set [4] (MDA-MB-453, 50 μM). The “inhibitory activity on PI3K/AKT” value in data set [6] is listed as “very strong inhibitors”.

`O=CC1=Cc2cc(Br)ccc2OC1c1ccc(Br)cc1` (stereo not drawn) [Compound 44, 6-Bromo-2-(4-bromophenyl)-2H-chromene-3-carbaldehyde] registered a melting point of 144 to 146 °C.

Regarding `ON=CC1=Cc2cc(Br)ccc2OC1c1ccc(Br)cc1` (stereo not drawn) [Compound 59, 6-Bromo-2-(4-bromophenyl)-2H-chromene-3-carbaldehyde oxime], the melting point was 158 to 160 °C.

Turning to `CCOc1cccc2c1OC(c1ccc(Br)cc1)C([N+](=O)[O-])=C2` (stereo not drawn) [Compound 13, 2-(4-bromo-phenyl)-8-ethoxy-3-nitro-2H-chromene], the IC50 in data set [5] was determined as 8000 nM. In addition, the “inhibitory activity on PI3K/AKT” value in data set [6] is reported as “very strong inhibitors”.

For `O=[N+]([O-])C1=Cc2cccc(Br)c2OC1c1ccc(Cl)cc1` (stereo not drawn) [Compound 19, 8-bromo-2-(4-chloro-phenyl)-3-nitro-2H-chromene], the IC50 in data set [5] was greater than 10000 nM. The “percentage of cell death” value in data set [1] (MCF-7, 6.25 μM) worked out at 0%; in data set [1] (MCF-7, 12.5 μM), 25.75%; in data set [1] (MCF-7, 25 μM) it was 52.14%; in data set [1] (MCF-7, 50 μM) it was 84.65%; in data set [4] (MDA-MB-453, 0.390625 μM) it was 0%; in data set [4] (MDA-MB-453, 0.78125 μM), 0%. Besides, the “percentage of cell death” value in data set [4] (MDA-MB-453, 1.5625 μM) worked out at 0%; in data set [4] (MDA-MB-453, 3.125 μM) it was 24.69%; in data set [4] (MDA-MB-453, 6.25 μM) it was 53.93%; in data set [4] (MDA-MB-453, 12.5 μM), 91.89%; in data set [4] (MDA-MB-453, 25 μM) it was 98.05%; in data set [4] (MDA-MB-453, 50 μM) it was 101.13%. Further, the “inhibitory activity on PI3K/AKT” value in data set [6] is “very strong inhibitors”.

Turning to `O=[N+]([O-])C1=Cc2cc(Br)ccc2OC1c1ccc(Cl)cc1` (stereo not drawn) [Compound 10, 6-bromo-2-(4-chloro-phenyl)-3-nitro-2H-chromene], the IC50 in data set [5] was 2000 nM. In addition, the “percentage of cell death” value in data set [1] (MCF-7, 6.25 μM) was 0%; in data set [1] (MCF-7, 12.5 μM) it was 24.06%; in data set [1] (MCF-7, 25 μM), 49.08%; in data set [1] (MCF-7, 50 μM), 81.85%; in data set [2] (6.25 μM) it was 4.62%; in data set [2] (12.5 μM), 87.84%. In addition, the “percentage of cell death” value stood at 91.71% in data set [2] (25 μM); 92.93% in data set [2] (50 μM); 0% in data set [3] (BT474, 6.25 μM); 40.42% in data set [3] (BT474, 12.5 μM); 69.52% in data set [3] (BT474, 25 μM); 93.84% in data set [3] (BT474, 50 μM). For the same compound, the “percentage of cell death” value amounted to 6.6% in data set [4] (MDA-MB-453, 0.390625 μM); 7.8% in data set [4] (MDA-MB-453, 0.78125 μM); 5.06% in data set [4] (MDA-MB-453, 1.5625 μM); 70.42% in data set [4] (MDA-MB-453, 3.125 μM); 76.17% in data set [4] (MDA-MB-453, 6.25 μM); 93.07% in data set [4] (MDA-MB-453, 12.5 μM). For the same compound, the “percentage of cell death” value in data set [4] (MDA-MB-453, 25 μM) is listed as 98.46%; in data set [4] (MDA-MB-453, 50 μM) it was 99.07%. Besides, the “inhibitory activity on PI3K/AKT” value in data set [6] was “very strong inhibitors”.

For the origin of these results see patent US9656984B2, “PI3K/AKT/mTOR inhibitors and pharmaceutical uses thereof” (UNIVERSITE DE RENNES 1, priority 2013, dated 2017).
